Results from patent US7777047B2, “Indole compound” (Takeda Pharmaceutical Company Limited, priority 2006, dated 2010).

Columns and labels:
[1] = target: T1, GST-hLGK1 (human liver GK) (Homo sapiens, UniProt P35557); experiment: Determination of GK activity value (GST-hLGK1, Mant-ATP, capillary electrophoresis); type: biochemical; conditions: glucokinase activation; GST-hLGK1, D-glucose, 37° C. for 60 min; concentration at midpoint between maximum activity value and control group activity value
T1 construct: made in house; host or cells: Escherichia coli BL21 (Stratagene), plasmid pGEX6P-2/hLGK1
T1 sequence (P35557 1-464 isoform P35557-3): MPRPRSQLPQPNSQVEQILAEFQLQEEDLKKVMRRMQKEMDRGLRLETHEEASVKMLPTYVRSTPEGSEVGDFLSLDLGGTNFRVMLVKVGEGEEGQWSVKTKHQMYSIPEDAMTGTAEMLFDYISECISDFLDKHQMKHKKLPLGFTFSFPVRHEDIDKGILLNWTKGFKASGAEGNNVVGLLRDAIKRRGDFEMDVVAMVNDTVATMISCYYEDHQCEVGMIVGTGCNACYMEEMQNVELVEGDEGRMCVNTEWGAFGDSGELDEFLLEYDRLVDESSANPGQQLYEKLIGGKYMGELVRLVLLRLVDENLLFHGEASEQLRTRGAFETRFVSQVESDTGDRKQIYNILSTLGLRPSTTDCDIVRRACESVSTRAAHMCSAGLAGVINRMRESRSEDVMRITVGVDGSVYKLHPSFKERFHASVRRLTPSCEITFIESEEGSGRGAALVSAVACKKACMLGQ
Protocol: Plasmid DNA to be used for the expression of a protein (GST-hLGK1) containing GST (Glutathione S-transferase) added to the amino terminal of human liver GK in Escherichia coli was prepared as follows.
BL21 strain (Stratagene) transformed with pGEX6P-2/hLGK1 obtained in Reference Example 1A was cultured with shaking at 37° C. for 14 hr in a 200 ml Erlenmeyer flask containing 50 ml of 100 μg/ml ampicillin-containing LB medium. The culture medium (25 ml) was diluted with 225 ml of 100 μg/ml ampicillin-containing LB medium, and further cultured with shaking at 37° C. for 1 hr in a 1 L Erlenmeyer flask. After culture, the Erlenmeyer flask was cooled on ice, 125 μL of 100 mM isopropyl-thio-β-D-galactopyranoside (IPTG) was added (final concentration 50 μM), and cultured at 17° C. for 20 hr. The culture medium was centrifuged, and the obtained fungus was disrupted by ultrasonication. The object protein (GST-hLGK1) was purified from the supernatant using Glutathione Sepharose 4B (Amersham Biosciences K.K.).
A solution (5 μL) of test compound in 50% dimethyl sulfoxide was added to each well of 384 well black plate (Nalge Nunc International K.K.). Then, a solution ([…]) obtained by diluting GST-hLGK1 obtained in Reference Example 2A with measurement buffer (containing 50 mM HEPES (pH 7.4), 200 mM KCl, 5 mM MgCl2, 2.5 mM DTT and 50 μM 2′-(or-3′)-O—(N-methylanthraniloyl)adenosine 5′-triphosphate (Mant-ATP) (Jena Bioscience GmbH)) to 6 μg/mL was added to each well.
Each well was stood at 37° C. for 10 min, and 25 mM D-glucose solution (10 μL) was added to start the reaction.
Each well after the reaction was stood at 37° C. for 60 min, and the reaction was quenched by adding 25 μL of a quenching solution (containing 200 mM HEPES (pH 7.4), 20 mM MgCl2, 200 mM EDTA, 0.03% Triton-X 100, 0.3% Coating 3 reagent (Caliper Life Sciences, Inc.)).
2′-(or-3′)-O—(N-methylanthraniloyl)adenosine 5′-triphosphate (Mant-ATP, substrate) and Mant-ADP (reaction resultant product) were separated from each well after the reaction by a microchip type capillary electrophoresis apparatus 250 HTS (Caliper Life Sciences, Inc.). The reaction rate [(reaction resultant product peak height)/(reaction resultant product peak height+substrate peak height)×100(%)] was calculated from the ratio of the substrate peak height and reaction resultant product peak height obtained by fluorescence detection (excitation wavelength 355 nm, measurement wavelength 460 nm) and used as the index of GK activity.
As a control group, the reaction rate was calculated in the same manner as above except that “solution in 50% dimethyl sulfoxide (without test compound)” was used instead of “solution of test compound in 50% dimethyl sulfoxide”.
A concentration dependency curve of the test compound was drawn with the percentage obtained by dividing the reaction rate of the well added with the test compound (test compound addition group) by the reaction rate of the control group was taken as the GK activity value of the test compound, and the concentration of the test compound at the midpoint between the maximum activity value of the test compound addition group and the control group activity value is shown as EC50 value.

| SMILES | EC50 [1] | melting point |
| --- | --- | --- |
| CN(c1cccc2cc(C3=NCC(CC(N)=O)S3)[nH]c12)S(=O)(=O)c1ccccn1 (single isomer, unassigned) [Example 337, 2-(2-{7-[methyl(pyridin-2-ylsulfonyl)amino]-1H-indol-2-yl}-4,5-dihydro-1,3-thiazol-5-yl)acetamide] | 82 nM | 149 to 150 °C |
| CN(c1cccc2cc(C3=NCC4(CCOCC4)S3)[nH]c12)S(=O)(=O)c1cccs1 [Example 243, N-methyl-N-[2-(8-oxa-1-thia-3-azaspiro[4.5]dec-2-en-2-yl)-1H-indol-7-yl]thiophene-2-sulfonamide] | 24 nM | – |
| COCCOc1cc(N(C)S(=O)(=O)c2ccccn2)c2[nH]c(C3=N[C@H](CO)CS3)cc2c1 [Example 253, N-[2-[(4R)-4-(hydroxymethyl)-4,5-dihydro-1,3-thiazol-2-yl]-5-(2-methoxyethoxy)-1H-indol-7-yl]-N-methylpyridine-2-sulfonamide] | 210 nM | – |
| COCCOc1cc(N(C)S(=O)(=O)c2ccccn2)c2[nH]c(C3=N[C@@H](CO)CS3)cc2c1 [Example 254, N-[2-[(4S)-4-(hydroxymethyl)-4,5-dihydro-1,3-thiazol-2-yl]-5-(2-methoxyethoxy)-1H-indol-7-yl]-N-methylpyridine-2-sulfonamide] | 200 nM | – |
| CN(c1cccc2cc(C3=NCC4(CCN(CC(N)=O)CC4)S3)[nH]c12)S(=O)(=O)c1cccs1 [Example 414, 2-(2-{7-[methyl(2-thienylsulfonyl)amino]-1H-indol-2-yl}-1-thia-3,8-diazaspiro[4.5]dec-2-en-8-yl)acetamide] | 37 nM | 226 °C |
